Results taken from US8652799B2, “Method of detecting bioactive molecules in a fluid sample” (priority 2008, dated 2014).
Where two headings read alike, the source gives them in different places.

What was measured:
Format in all cases: cell-based
[1] = system: Chlorella vulgaris
Description: The algae concentration was 5×10^6 cells/mL (100 μL of algae within 2 mL of aqueous solution (i.e. distilled water)) containing the substance to detect at indicated concentrations. For each substances, 5 concentrations in triplicates were tested. The TOXSTAT™ software was used to calculate from inhibition values and standard deviations obtained, the maximum concentration without observable effect and the minimal concentration with observable effects. The threshold was calculated with the following formula: (maximum concentration without observable effect x minimal concentration with observable effects)^1/2 (See Table 2 below). The temperature was controlled by a thermostatic bath.
(§1) The detection threshold was obtained with the geometric mean. It was calculated with the following formula: Detection threshold=(CSEO×CMEO)^1/2 where
(§2) CMEO=minimal concentration resulting in a detectable inhibition of the algae efficacy.
(§3) CSEO and CMEO were estimated by a variance analysis ANNOVA™ followed by a Dunnett multiple comparison by comparing the mean efficacy of each tested concentration with the control mean. Calculations were performed with TOXSTAT™ (Version 3.5).

[2] = system: Chlorella vulgaris; settings: for Inhibition: 0.5 ppm
Description: (§4) A Chlorella vulgaris culture was prepared as described in Example 1 above. As indicated in Example 1, the algae were reactivated before testing under ambient light and at room temperature during 90 minutes.
The formulation was then incubated under ambient light at 35° C. and at neutral pH with cadmium, copper, chromium, zinc, nickel, or lead, at indicated concentrations at incubation times varying between 15 minutes and 120 minutes. (FIGS. 9 to 12). The formulations were tested without additives or with 1 ppm cadmium, 0.1 ppm copper or 0.25 ppm copper as additive. The cellular concentration was 2.5×10^6 cells/mL (50 μL of algae within 2 mL of metal containing aqueous solution (i.e. distilled water)). Testing was performed in triplicates. The fluorescence emitted by each formulation was then measured with Luminotox™, a fluorometer that measures photosynthetic activity.

[3] = system: Chlorella vulgaris; assay: Stability of F2 fluorescence of Chlorella vulgaris incubated with additives
Description: F2 fluorescence levels produced by Chlorella vulgaris prepared as described in Example 1 above was measured after incubation with additives tested above, namely cadmium (0.5 ppm), cadmium (1 ppm), copper (0.1 ppm) and copper (0.25 ppm). As may be seen in FIG. 8, F2 fluorescence was stable after up to 120 minutes of incubation for each of these additives.

[4] = system: Anabaena sp.; assay: Detection of bioactive molecules with Anabaena sp.: inhibition of photosynthetic fluorescence (Luminotox); settings: 1 ppm, neutral pH; for inhibition at 1 ppm: 10 min
Description: The photosynthetic efficiency is determined with the following formula (F2−F1)/F2. Any molecule affecting directly or indirectly the photosystems modify either F1 or F2 which modification necessarily decreases the photosynthetic efficiency. The inhibition curve of a particular molecule is determined by calculating the activity of the photosystems in the absence of the molecule and in the presence of the molecule and comparing both efficiency as follows as described in Conrad 1993:
Without Inhibitor (wi): efficiency(wi)=(F2(wi)−F1(wi)/F2(wi) With Inhibitor: Relative photosynthetic efficiency(sample)=(F2(sample)−F1(sample))/F2(wi) Percentage Efficiency: efficiency (%)=(efficiency(sample)×100)/efficiency(wi) Percentage Inhibition: Inhibition (%)=100−efficiency (%)
An Anabaena sp. culture was prepared as described in Example 3 above. As indicated in Example 3, the cyanobacteria were reactivated before testing under ambient light and at room temperature during 60 minutes.
The culture was then incubated with bioactive molecules listed in Table 1 below at concentrations of 1 ppm (except for atrazine which was used at a concentration of 1 ppb) for 10 minutes under ambient light followed by 10 minutes under green light and neutral pH. The cellular concentration was 1.0×10^7 cells/mL (100 μL of cyanobacteria within 2 mL of bioactive agent containing aqueous solution (i.e. distilled water)). Testing was performed in triplicates. The fluorescence emitted by each formulation was then measured with Luminotox™ a fluorometer that measures photosynthetic activity.

[5] = system: Dunaliella tertiolecta; settings: 15 min. green light exposition at room temperature
Description: as §1, §2, §3
(§5) A Dunaliella tertiolecta culture was prepared as described in Example 2 above. As indicated in Example 2, the algae were reactivated before testing under ambient light and at room temperature during 45 minutes.
The algae formulations were then incubated for 15 minutes with water containing one of the various contaminants listed in Table 2 below at neutral pH under green light and at room temperature. The algae concentration was 350 000 cells/mL (500 μL of algae within 2 mL of aqueous solution (i.e. distilled water) containing substance to detect at indicated concentrations). For each substances, 5 concentrations in triplicates were tested. The TOXSTAT™ software was used to calculate from inhibition values and standard deviations obtained, the maximum concentration without observable effect and the minimal concentration with observable effects (See Table 2 below). The temperature was controlled by a thermostatic bath. Tests were performed in triplicates. The fluorescence emitted by each formulation was then measured with Luminotox™, a fluorometer that measures photosynthetic activity and detection threshold determined as described in the Example above.

[6] = system: Chlorella vulgaris; assay: Inhibition of fluorescence emission of Chlorella vulgaris incubated at 35° C.; settings: 15 minutes
Description: The present invention also concerns a method for ammonia nitrogen detection comprising changing algal cell permeability. This compound is detected at 100 ppm at neutral pH but the increment of pH up to 11 decreases the threshold to 1 ppm. Algal permeability can also be modified by increasing the incubation temperature of the assay. For example, fluorescence emission is inhibited in 15 minutes by copper ions, tetracycline and progesterone if Chlorella vulgaris is incubated at 35° C., while at room temperature the detection of these compounds in 15 minutes was possible when these compounds are present at higher concentrations. Chlorella vulgaris is a freshwater alga and is used for freshwater monitoring while Dunaliella tertiolecta is used of for marine water monitoring.

[7] = system: Chlorella vulgaris; assay: Detection of lead with Chlorella vulgaris with single additives or additive mixtures
Description: as §4
The formulation was then incubated under ambient light at 35° C. and at neutral pH with lead, at indicated concentrations and at incubation times varying between 15 minutes and 120 minutes (FIGS. 13 to 16). The formulations were tested with or without additives used as single additives (Cd 1 ppm, Cu 0.1 ppm and Cu 0.25 ppm) or mixes of additives (Cu 0.1 ppm+Cd 0.5 ppm; Cu 0.1 ppm+Cd 1 ppm; Cu 0.25 ppm+Cd 1 ppm). The cellular concentration was 2.5×10^6 cells/mL (50 μL of algae within 2 mL of lead containing aqueous solution (i.e. distilled water) with or without additives). Testing was performed in triplicates. The fluorescence emitted by each formulation was then measured with Luminotox™ a fluorometer that measures photosynthetic activity.

[8] = system: Chlorella vulgaris; assay: Effect of pH on detection of ammoniacal nitrogen with Chlorella vulgaris; settings: for Concentration of NH3 at which 20% inhibition was achieved: 10 min green light, room temperature
Description: A Chlorella vulgaris culture was prepared as described in Example 1 above. As indicated above, the algae were reactivated before testing during 90 minutes under ambient light and at room temperature.
The culture was then incubated with ammoniacal nitrogen for 10 minutes under green light and at room temperature. The desired pH was achieved by adding NaOH to a glycine 20 mM buffer. The cellular concentration of the algae was 5×10^6 cells/mL of solution (100 μL algae in 2 mL of ammoniacal nitrogen containing aqueous solution (i.e. distilled water)). Testing was performed in triplicates. The fluorescence emitted by each formulation was then measured with Luminotox™, a fluorometer that measures photosynthetic activity. Although the Luminotox™ was used in Examples presented herein, any fluorometer able to measure […] can be used in accordance with the present invention.

[9] = system: Dunaliella tertiolecta; assay: Progesterone detection with Dunaliella tertiolecta, green light versus white light then green light; settings: 0.25 h, 15 min green light only, 350 000 cells/mL, read-out: Maximum percentage inhibition
Description: as §5
The formulation was then incubated with progesterone at concentrations of 0; 0.05; […] or 1 ppm for 15 minutes under green light only or for 15 minutes under ambient light followed by 5 to 35 minutes under green light. The cellular concentration was 350 000 cells/mL (500 μL of algae within 2 mL of progesterone containing aqueous solution (i.e. distilled water)). Testing was performed in triplicates. The fluorescence emitted by each formulation was then measured with Luminotox™, a fluorometer that measures photosynthetic activity.

[10] = 10-15 min. exposition to ambiant light at 35° C., neutral pH (pH 7), 5×10^6 cells/mL
[11] = 1 ppm, 60 minutes of incubation, without additive
[12] = 10 min ambient light followed by 10 min green light, read-out: Inhibition obtained at 1 ppm (followed by 10 min green light)
[13] = 10 min ambient light, 1.0×10^7 cells/mL, read-out: Inhibition obtained at 1 ppm (10 min ambiant light)
[14] = neutral pH (pH 7), 350 000 cells/mL
[15] = 10 min ambient light followed by 10 min green light
[16] = 10 min ambient light, 1.0×10^7 cells/mL

Mercury [Hg]
Detection threshold [1, 10]: 0.22 ppm

[Cd] [Cd, Cadmium]
Detection ([2]; 1 ppm alone, 15 minutes of incubation): not detected | Detection [2, 11]: detected although weakly | F2 fluorescence over time ([3]; 0.5 ppm, up to 120 minutes of incubation): stable | F2 fluorescence over time ([3]; 1 ppm, after 120 minutes of incubation): decrease of fluorescence | Detection threshold [1, 10]: 0.3 ppm

CCOC(=O)CC(SP(=S)(OC)OC)C(=O)OCC (stereo not shown) [malathion]
inhibition at 1 ppm [4, 12]: 17% | inhibition at 1 ppm [4, 13]: 0% | Detection threshold [5, 14]: 50 ppm

cyanure
Inhibition obtained at 1 ppm (followed by 10 min green light) [4, 15]: 16% | Inhibition obtained at 1 ppm (10 min ambiant light) [4, 16]: 0% | Detection threshold [1, 10]: 0.16 ppm

[Cu] [Cu, Copper]
Detection ([2]; 0.25 ppm, 60 minutes of incubation, without additives): not detected | Inhibition ([2]; 15 minutes of incubation, cadmium 1 ppm as additive): 30% | Inhibition ([2]; 15 minutes of incubation, without additive, ambient light 35° C.): 15% | Fluorescence emission [6]: inhibited | F2 fluorescence over time ([3]; 0.1 ppm, up to 120 minutes of incubation): stable | F2 fluorescence over time ([3]; 0.25 ppm, up to 120 minutes of incubation): stable | Detection threshold [1, 10]: 0.25 ppm

O=C(O)CNCP(=O)(O)O [glyphosate]
inhibition at 1 ppm [4, 12]: 7% | inhibition at 1 ppm [4, 13]: 0% | Detection threshold [5, 14]: 50 ppm | Detection threshold [1, 10]: 100 ppm

COP(=O)(OC)O/C(C)=C/C(=O)N(C)C [dicrotophos]
inhibition at 1 ppm [4, 12]: 17% | inhibition at 1 ppm [4, 13]: 2% | Detection threshold [5, 14]: 235 ppm

CCc1cccc(C)c1N(C(=O)CCl)C(C)COC (stereo not shown) [metolachlor]
inhibition at 1 ppm [4, 12]: 22% | inhibition at 1 ppm [4, 13]: 0%

[Cr] [Cr, Chrome]
Detection ([2]; 0.1 ppm, 60 minutes of incubation, without additive): detected although weakly

[Pb] [Pb, Lead]
Detection [2, 11]: detected although weakly | Concentration of lead detected ([7]; 15 minutes of incubation, with mixtures of additives): 1 ppm | Concentration of lead detected ([7]; 30 minutes of incubation, mixture Cu 0.1 ppm+Cd 1 ppm): 0.1 ppm | Concentration of lead whose detection was increased ([7]; 60 minutes of incubation, all additive mixtures): ≥ 0.1 ppm | Concentration of lead detected ([7]; 120 minutes of incubation, additive mixtures Cu 0.1 ppm+Cd 0.5 ppm and Cu 0.25 ppm+Cd 1 ppm): 0.01 ppm | Detection threshold [1, 10]: <0.5 ppm

gramicidine
Inhibition obtained at 1 ppm (followed by 10 min green light) [4, 15]: 15% | Inhibition obtained at 1 ppm (10 min ambiant light) [4, 16]: 0%

CNC(=O)O/N=C/C(C)(C)SC [aldicarbe]
Inhibition obtained at 1 ppm (followed by 10 min green light) [4, 15]: 30% | Inhibition obtained at 1 ppm (10 min ambiant light) [4, 16]: 0%

CCOP(=S)(OCC)Oc1nc(Cl)c(Cl)cc1Cl [chlorpyrifos]
inhibition at 1 ppm [4, 12]: 10% | inhibition at 1 ppm [4, 13]: 0% | Detection threshold [5, 14]: 1 ppm | Detection threshold [1, 10]: 1 ppm

[Ni] [nickel]
Detection ([2]; 1 ppm, 120 minutes of incubation): weakly detected

CN(C)C(=O)Nc1ccc(Cl)c(Cl)c1 [Diuron]
Detection threshold [5, 14]: 0.002 ppm | Detection threshold [1, 10]: 0.006 ppm | Detection threshold ([1]; 10-15 min. green light exposition at room temperature, neutral pH (pH 7), 5×10^6 cells/mL): <0.0005 ppm | Detection threshold ([1]; 10-15 min. green light exposition at room temperature, neutral pH (pH 7), 5×10^6 cells/mL, listed as diuron): lower than 0.0005 ppm

Ammonia nitrogen
Concentration at which the compound is detected ([8]; neutral pH): 100 ppm | Concentration of NH3 at which 20% inhibition was achieved ([8]; pH 7): 100 ppm | Concentration of NH3 at which 20% inhibition was achieved ([8]; pH 9): 5 ppm | Concentration of NH3 at which 20% inhibition was achieved ([8]; pH 11): lower than 2 ppm | Concentration of NH3 at which 20% inhibition was achieved ([8]; pH 12): lower than 2 ppm | Detection threshold ([8]; pH up to 11): 1 ppm | Detection threshold ([5]; pH 11): 1 ppm at pH 11 | Detection threshold ([1]; pH 11, 10-15 min. exposition to ambiant light at 35° C.): 1 ppm at pH 11 | Detection threshold ([1]; pH 11, 10-15 min. green light exposition at room temperature): 1 ppm at pH 11

CC(C)N1C(=O)c2ccccc2NS1(=O)=O [bentazone]
inhibition at 1 ppm [4, 12]: 28% | inhibition at 1 ppm [4, 13]: 0%

CC(=O)[C@H]1CC[C@H]2[C@@H]3CCC4=CC(=O)CC[C@]4(C)[C@H]3CC[C@]12C [progesterone]
Fluorescence emission [6]: inhibited | inhibition at 1 ppm [9]: 40%
